Test results from US9527837B2, “Inhibitors of EZH2” (Eli Lilly and Company, priority 2014, dated 2016).

What was measured:
[1] = system: tri-methylated H3K27 in MDA MB-231 (EZH2 WT) cells; assay: H3K27Me3 cell-based ELISA, MDA MB-231; settings: Homo sapiens, 48 hours
Procedure: (§1) The purpose of this assay is to evaluate the ability of a compound to inhibit the functional activity of EZH2 in cells, via measurement of levels of cell tri-methylated H3K27. Plate MDA MB-231 (EZH2 WT) or Karpas-422 (EZH2 Y641N) cells at 3500/100 μL/well (for MDA MB-231) or 5,000 cells/100 μL/well (for Karpas-422) in black 96-well BD BioCoat Cellware, Poly-Lysine plates (BD Biosciences, Cat#354640). Prepare compound plates in a Nunc™ 96-Well Polypropylene MicroWell Plate (Thermo Scientific Cat# #249944) with the addition of 40 μL/well of 10 mM compound (representing starting final concentration of 20 μM) or 40 μL DMSO, then prepare serial dilutions through the transfer of 20 μL from one well to the next. Add 5 μL of test compound to 245 μL/well of growth media in a separate Nunc™ 96-Well Polypropylene MicroWell Plate, and stamp 11 μL of the compound/media mix onto the cell plates. Place cell plates in a 37° C. incubator for 48 hours. Remove plates from the incubator, place the plates at room temperature for 15-20 minutes, and spin down the plates at 1000 rpm for 5 minutes. Fix cells with 30 μL 16% paraformaldehyde for 15 minutes at room temperature. Remove the paraformaldehyde and permeabilize cells with 100 μL/well PBS minus calcium or magnesium (−/−) containing 0.1% TRITON® X-100 for 20 minutes at room temperature. […]

[2] = system: tri-methylated H3K27 in Karpas-422 (EZH2 Y641N) cells; assay: H3K27Me3 cell-based ELISA, Karpas-422; settings: Homo sapiens, 48 hours
Procedure: as §1

[3] = system: Karpas-422 cells; assay: Karpas-422 proliferation assay; format: cell-based; settings: Homo sapiens, KARPAS-422, 168 h; 7 days, Cell Titer GLO
Procedure: Plate Karpas-422 cells at a density of 5000 cells/100 μL/well in 96 well, black 96-well BD BioCoat Cellware, Poly-Lysine plates (BD Biosciences, Cat#354640). 40 μL of 10 mM test compound (representing starting final concentration of 20 μM) or add 100% DMSO to a Nunc 96-Well Polypropylene MicroWell Plate (Thermo Scientific Cat# #249944). Perform serial dilutions through the transfer of 20 μL from one well to the next. Add 5 μL of compound to a 245 μL/well of growth media in a separate Nunc 96-Well Polypropylene MicroWell Plate, and stamp 11 μL of the compound/media mix onto the cell plates. Incubate cell plates at 37° C. for 7 days. Add 100 μL/well of Cell Titer GLO® reagent (Promega, Cat# G7671) to the cell plates. Shake 2 minutes and measure luminescence using a plate reader.

[4] = system: tumor tri-methylated H3K27 (Karpas-422 xenograft); assay: ELISA-based measurement of tumor-derived tri-methylated H3K27, Karpas-422 xenograft; format: in vivo; settings: mice, 50 mpk BID oral gavage, day 7, p<0.0001
Procedure: (§2) The purpose of this assay is to evaluate the ability of a test compound to inhibit tumor EZH2 function and EZH2-mediated tumor growth in vivo.
To acid-extract histones from tumors, place tumor sections of approximately 0.5 cm by 0.25 cm or 20-30 mg in weight in Lysing Matrix D 500×2 mL Add RNASE/DNASE-free tubes with beads for homogenization (MP Biomedicals, Cat#6913-500). Add 650 μL of Acid Lysis Buffer (0.4 N HCl containing Protease Inhibitor Cocktail Tablets (Roche; Cat#11836153001)). Homogenize tumor samples 2-3 times at speed 6 m/second for 20 seconds in a FastPrep FP120 homogenizer. Set samples on ice for 1 hour to separate. Transfer supernatants to an eppendorf tube and place on a tube rotator to lyse overnight at 4° C. Spin samples down at 8000 rpm for 10 minutes at 4° C. Transfer supernatants to a new tube and measure for protein concentration.
Add 150 μL/well of MSD Blocking Solution A (Meso Scale Discovery (MSD); final concentration of 3%) to a MULTI-SPOT® Tri-Methyl-Histone H3(K27) Singleplex plate (MSD; Cat#: N45CA-1). Shake at room temperature for 1 hour. Wash the plate with 1×MSD Tris Wash Buffer™ (MSD), (3×). Dispense 0.25 μg of tumor lysate in 25 μL Acid Lysis Buffer per well in triplicate. Shake overnight at 4° C. […] Add 150 μL/well 1×MSD® Read Buffer and measure chemoelectroluminescence using a MSD SECTOR® Imager 6000 instrument.

[5] = system: tumor TNFRSF21 gene expression (Karpas-422 xenograft); assay: qPCR-based measurement of tumor-derived TNFRSF21 mRNA expression, Karpas-422 xenograft; format: in vivo, mice; settings: 50 mpk BID oral gavage, day 7, normalized to GAPDH, p<0.0001
Procedure: as §2
To isolate RNA from tumor tissue, place tumor sections of approximately 0.5 cm by 0.25 cm or 20-30 mg in weight in Lysing Matrix D 500×2 mL Add RNASE/DNASE-free tubes with beads for homogenization (MP Biomedicals, REF: 6913-500). Add 650 μL of RLT buffer from RNeasy® Kit (Qiagen; Cat#74104). Homogenize samples 2 to 3 times at speed 6 for 20 seconds in the FastPrep FP120 homogenizer. Set samples on ice to cool for 10 minutes. Centrifuge at 13 000 rpm for 10 minutes at 4° C. Place supernatants into a QIA tube and isolate RNA using the RNeasy® Kit (Qiagen; Cat#74104).
Prepare cDNA from 3 μg of tumor RNA using the High Capacity cDNA Reverse Transcription Kit (Applied Biosystems; Cat#4368813) and incubate samples in a PCR Thermocycler using the following cycle conditions: 10 minutes at 25° C.; 2 hours at 37° C., hold at 4° C. Amplify cDNA product using Thermo Scientific ABsolute Blue QPCR ROX Mix (Applied Biosystems; Cat# AB-4139) and Taqman probes for TNFRSF21 (Applied Biosystems; Cat# Hs01560899_m1) and housekeeping gene GAPDH (Applied Biosystems; Cat# Hs02758991-g1) in the Applied Biosystems ViiA 7™ Real-Time PCR cycler. Calculate TNFRSF21 cycle threshold values and normalize to its respective sample's GAPDH levels. […]

| SMILES | IC50 [1] [nM] | IC50 [2] [nM] | IC50 [3] [nM] | inhibition of tumor methylation [4] [%] | increase in tumor TNFRSF21 gene expression [5] [fold] |
| --- | --- | --- | --- | --- | --- |
| COC1CN([C@H]2CC[C@H]([C@@H](C)c3scc(C(=O)NCc4c(C)cc(C)[nH]c4=O)c3C)CC2)C1 [Example 1, N-[(4,6-Dimethyl-2-oxo-1,2-dihydropyridin-3-yl)methyl]-5-{(1R)-1-[trans-4-(3-methoxyazetidin-1-yl)cyclohexyl]ethyl}-4-methylthiophene-3-carboxamide] | 1.88 ± 0.66 | 3.79 ± 1.02 | 49.7 ± 33.9 | 53 | 25 |
| COC1CN([C@H]2CC[C@H]([C@H](C)c3scc(C(=O)NCc4c(C)cc(C)[nH]c4=O)c3C)CC2)C1 [Example 2, N-[(4,6-Dimethyl-2-oxo-1,2-dihydropyridin-3-yl)methyl]-5-{(1S)-1-[trans-4-(3-methoxyazetin-1-yl)cyclohexyl]ethyl}-4-methylthiophene-3-carboxamide] | 9.02 ± 2.69 | 144 ± 232 | 526 | – | – |
